In patent US20100285959A1, “HERBICIDAL MIXTURES” (priority 2006, published 2010):

What was measured:
field poppy (PAPRH) = assay: Test 21 growth chamber, postemergence; type: in vivo, Papaver rhoeas; settings: 19 DAA
Description: (§1) A test was conducted to evaluate the effects on winter barley (HORVW, Hordeum vulgare L.), winter wheat (TRZAW, Triticum aestivum L.), and several weed species, of mixtures of Compound 2 with the commercial herbicide (2,4-dichlorophenoxy)acetic acid (2,4-D), an auxin mimic. […] Plants were treated postemergence at the 2-4 leaf growth stage, and each treatment was replicated one time. […] Plants were watered as needed. […] Results are from single replicates.

winter wheat (TRZAW) = assay: Test 22 growth chamber, postemergence; type: in vivo, Triticum aestivum; settings: 25 DAA
Description: A test was conducted to evaluate the effects on winter barley (HORVW, Hordeum vulgare L.), winter wheat (TRZAW, Triticum aestivum L.), and several weed species of mixtures of Compound 2 with the commercial herbicides (2,4-dichlorophenoxy)acetic acid (2,4-D) and (4-chloro-2-methylphenoxy)acetic acid (MCPA), auxin mimics. […] Plants were treated postemergence at the 2-4 leaf growth stage, except KCHSC, SASKR and STEME which were in the 4-8 leaf growth stage. Each treatment was replicated one time. […] Plants were watered as needed. […] Results are from single replicates.

winter barley (HORVW) = assay: Test 19 growth chamber, postemergence; type: in vivo, Hordeum vulgare
Description: A test was conducted to evaluate the effects on winter barley (HORVW, Hordeum vulgare L.) and winter wheat (TRZAW, Triticum aestivum L.) of mixtures of Compound 2 with the commercial herbicide (2,4-dichlorophenoxy)acetic acid (2,4-D), an auxin mimic. […] Plants were treated postemergence at the 3-leaf growth stage, and each treatment was replicated four times. […] Plants were watered as needed. […] Results are the means of the four replicates.

redroot pigweed (AMARE) = assay: Test 21 growth chamber, postemergence; type: in vivo, Amaranthus retroflexus; settings: 19 DAA
Description: as §1

[1] = test system: common lambsquarters (CHEAL); assay: Test 2 field trial, preemergence; type: in vivo, Chenopodium album; design: scale not given here; settings: 28 DAA
Excerpt: Corn seeds (hybrid ‘Pioneer 31G96’) were planted in mid spring season, 3.8 cm deep in a clay loam soil having 2% organic matter and a pH of 6.6. Plots were 6.1 m long by 3.0 m wide with rows spaced 76 cm apart. Seeds were spaced 15 cm apart within the rows. The field was managed using conventional tillage practices. […] A few of the weed species could not be evaluated at every timing. […] Results are the means of the three replicates.

[2] = test system: Florida beggarweed (DEDTO); assay: Test 12 field trial, preemergence; type: in vivo, Desmodium tortuosum; design: scale not given here; settings: Cpd 2 or Cpd 1 62 g a.i./ha, Diuron 2000 g a.i./ha
Excerpt: In early-mid spring season, corn seeds (hybrid ‘Pioneer 3041’) were planted 5 cm deep and sugarcane nodes (variety RB-72.454) were planted 10 cm deep in separate plots in a clay soil having 2.6% organic matter and a pH of 5.6. Plots were 24 m long by 1.5 m wide with rows spaced 80 cm (corn) or 140 cm (sugarcane) apart. Corn seeds were spaced 15 cm apart and sugarcane nodes were spaced 10 cm apart within the rows. At the same time, weed seeds were broadcast over the surface of separate plots without a crop, one weed species per plot. The weed plots were rotary tilled to incorporate the weed seeds to a variety of depths. The field was managed using conventional tillage practices.

jimsonweed (DATST) = assay: Test 14 field trial, preemergence, growth as percent of control; type: in vivo, Datura stramonium
Excerpt: Corn seeds (hybrid ‘Pioneer 31G96 RR’) were planted in mid spring season, 3.8 cm deep in a clay loam soil having 2% organic matter and a pH of 6.6. Plots were 6.1 m long by 3.0 m wide with rows spaced 76 cm apart. Seeds were spaced 15 cm apart within the rows. The field was managed using conventional tillage practices. […] Yellow nutsedge was only evaluated 19 and 28 days after application, and ivyleaf morningglory could only be evaluated 28 days after application. […] Results are the means of the three replicates. This growth inhibition data was converted to results in the form of “plant growth as a percent of control plant growth” using the calculation “100 minus growth inhibition”. […] For “growth as a percent of control” data, Colby's Equation calculates the expected additive effect of herbicidal mixtures having two active ingredients as follows:
Ga+b=GaGb/100 • wherein Ga+b is the growth as a percent of control of plants treated with the mixture expected from additive contribution of the individual components, • Ga is the observed growth as a percent of control of plants treated with the first active ingredient at the same use rate as in the mixture, and • Gb is the observed growth as a percent of control of plants treated with the second active ingredient at the same use rate as in the mixture. For mixtures having three active ingredients, Colby's Equation to calculate the expected additive effect of herbicidal mixtures is as follows:
Ga+b+c=GaGbGc/10,000 • wherein Ga and Gb are as defined above and • Ga+b+c is the growth as a percent of control of plants treated with the mixture expected from additive contribution of the individual components, and • Gc is the observed growth as a percent of control of plants treated with the third active ingredient at the same use rate as in the mixture. When these two forms of Colby's Equation are used, if the observed effects on weeds are less than the expected values, the mixture is synergistic.

[3] = test system: Virginia pepperweed (LEPVI); assay: Test 3 field trial, emerged weeds before corn planting; type: in vivo, Lepidium virginicum; settings: Cpd 2 100, glyphosate 1540, paraquat 1150 g a.i./ha, alone or combined
Excerpt: Corn seeds (hybrid ‘Pioneer 33J56’) were planted in early spring season, 3.8 cm deep in a silt loam soil having 2.4% organic matter and a pH of 6. Plots were 6.1 m long by 2.7 m wide with rows spaced 91.4 cm apart. The field was managed using no-till practices. […] Compound 2 and paraquat treatments, alone and in combination, also included a surfactant. Glyphosate, alone and with Compound 2, included ammonium sulfate in the treatment mixture. […] The effects on the weeds in the treated plots and untreated control plots were recorded 30, 42, 46 and 68 days after application. Most of the weed species could not be evaluated at every timing. Corn response was not evaluated because the growth was highly variable depending on the efficacy of the weed control treatments. […] Results are the means of the three replicates.

[4] = g a.i./ha: Cpd 2 25, Atrazine 250
[5] = g a.i./ha: Cpd 2 50, Atrazine 500
[6] = g a.i./ha: Cpd 2 75, Atrazine 750
[7] = g a.i./ha: Cpd 2 100, Atrazine 1000
[8] = g a.i./ha: Cpd 2 150, Atrazine 1500

Compound	CHEAL Obs [1, 4]	CHEAL Obs [1, 5]	CHEAL Obs [1, 6]	CHEAL Obs [1, 7]	CHEAL Obs [1, 8]	DEDTO Obs ([2]; 15 DAA)	DEDTO Obs ([2]; 29 DAA)	DEDTO Obs ([2]; 48 DAA)	DEDTO Obs ([2]; 61 DAA)	LEPVI Obs ([3]; 30 DAA)	LEPVI Obs ([3]; 42 DAA)	LEPVI Obs ([3]; 46 DAA)	other results
O=C(O)COc1ccc(Cl)cc1Cl [2,4-D, (2,4-dichlorophenoxy)acetic acid]	–	–	–	–	–	–	–	–	–	–	–	–	Postemergence PAPRH Obs (field poppy (PAPRH); 2,4-D alone 125 g a.i./ha): 35; Postemergence PAPRH Obs (field poppy (PAPRH); 2,4-D alone 250 g a.i./ha): 35; Postemergence TRZAW Obs (winter wheat (TRZAW); 2,4-D or MCPA alone 250 g a.i./ha): 20; HORVW Obs (winter barley (HORVW); Postemergence, 17 DAA, g a.i./ha: Cpd 2 16, 2,4-D 250): 15; HORVW Obs (winter barley (HORVW); Postemergence, 17 DAA, g a.i./ha: Cpd 2 16, 2,4-D 500): 5; HORVW Obs (winter barley (HORVW); Postemergence, 17 DAA, g a.i./ha: Cpd 2 16, 2,4-D 1000): 10; Postemergence AMARE Obs (redroot pigweed (AMARE); 2,4-D alone 125 g a.i./ha): 50; Postemergence AMARE Obs (redroot pigweed (AMARE); 2,4-D alone 250 g a.i./ha): 50
CCNc1nc(Cl)nc(NC(C)C)n1 [Atrazine, atrazine, reference compound]	100	100	100	100	100	–	–	–	–	–	–	–	–
Nc1nc(C2CC2)nc(C(=O)O)c1Cl [Compound 1, 6-amino-5-chloro-2-cyclopropyl-4-pyrimidinecarboxylic acid]	–	–	–	–	–	95	75	60	60	–	–	–	–
COC(=O)c1nc(C2CC2)nc(N)c1Cl [Compound 2, methyl 6-amino-5-chloro-2-cyclopropyl-4-pyrimidinecarboxylate]	90	100	100	100	100	100	70	80	60	69%	18%	23%	Postemergence PAPRH Obs (field poppy (PAPRH); Cpd 2 alone 16 g a.i./ha): 65; Obs growth % of control (jimsonweed (DATST); 19 DAA, 75 g a.i./ha): 93%; Obs growth % of control (jimsonweed (DATST); 19 DAA, 100 g a.i./ha): 73%; Obs growth % of control (jimsonweed (DATST); 28 DAA, 75 g a.i./ha): 32%; Obs growth % of control (jimsonweed (DATST); 28 DAA, 100 g a.i./ha): 30%; Obs growth % of control (jimsonweed (DATST); 56 DAA, 75 g a.i./ha): 0%; Obs growth % of control (jimsonweed (DATST); 56 DAA, 100 g a.i./ha): 5%; Postemergence TRZAW Obs (winter wheat (TRZAW); Cpd 2 alone 4 g a.i./ha): 30; Postemergence TRZAW Obs (winter wheat (TRZAW); Cpd 2 alone 8 g a.i./ha): 35; Postemergence TRZAW Obs (winter wheat (TRZAW); Cpd 2 alone 16 g a.i./ha): 40; HORVW Obs (winter barley (HORVW); in vivo): 45; Postemergence AMARE Obs (redroot pigweed (AMARE); Cpd 2 alone 16 g a.i./ha): 60
O=C(O)CNCP(=O)(O)O [Glyphosate]	–	–	–	–	–	–	–	–	–	98%	82%	98%	–
CCc1cccc(C)c1N(C(=O)CCl)[C@@H](C)COC [S-Metolachlor, S-metolachlor, reference compound]	–	–	–	–	–	–	–	–	–	–	–	–	Obs growth % of control (jimsonweed (DATST); 19 DAA, 1870 g a.i./ha): 100%; Obs growth % of control (jimsonweed (DATST); 28 DAA, 1870 g a.i./ha): 22%; Obs growth % of control (jimsonweed (DATST); 56 DAA, 1870 g a.i./ha): 30%
